What is called EC50 is the concentration giving half of the maximal effect. High values mean lower potency in that assay, low ones higher potency in that assay. The term IC50 denotes the point on the concentration scale where inhibition reaches its midpoint.

Molecules are shown by their SMILES.

Type in all cases: functional, organism-based
Test [1] has as its system Plasmodium falciparum. Kind of test: Antimalarial activity against chloroquine-sensitive Plasmodium falciparum 3D7 after 72 hrs by SYBR green dye-based spectrofluorometer analysis. The settings on record: 3D7, 72 h.
Test [2] deals with Plasmodium falciparum. Nature of the test: Antimalarial activity against chloroquine-resistant Plasmodium falciparum K1 after 72 hrs by SYBR green dye-based spectrofluorometer analysis. The settings on record: K1, 72 h.
In test [3] the test system is Plasmodium falciparum. Nature of the test: Antimalarial activity against Plasmodium falciparum NF54.
For test [4], the system named is Plasmodium falciparum. Kind of test: Antimalarial activity against Plasmodium falciparum D6 after 48 hrs by in presence of [3H]hypoxanthine.
Test [5] has as its system Plasmodium falciparum. Kind of test: Antimalarial activity against Plasmodium falciparum W2 after 48 hrs by in presence of [3H]hypoxanthine.
Test [6] concerns Plasmodium falciparum. Kind of test: Antimalarial activity against Plasmodium falciparum K1 by [3H]-hypoxanthine incorporation assay.
Test [7] relates to Plasmodium falciparum. Kind of test: Antimalarial activity against Plasmodium falciparum K1 after 48 hrs by [3H]hypoxanthine incorporation assay.
Test [8] relates to Plasmodium falciparum. Kind of test: Antimalarial activity against chloroquine-sensitive Plasmodium falciparum NF54.

In the case of `C[C@@H]1CC[C@H]2[C@@H](C)C(OC(=O)Cc3ccccc3)O[C@@H]3O[C@]4(C)CC[C@@H]1[C@]32OO4` (some centres not stated), the EC50 in the test on Plasmodium falciparum [1] came out at 2.4 nM; with Plasmodium falciparum [2], 0.5 nM.

In the case of `CC1=C(/C=C/c2ccccc2)O[C@@H]2O[C@]3(C)CC[C@H]4[C@H](C)CC[C@@H]1[C@@]24OO3`, the IC50 in the test on Plasmodium falciparum [3] is 16 nM.

Take `CCOC(=O)CC[C@@H](O[C@H]1O[C@@H]2O[C@]3(C)CC[C@H]4[C@H](C)CC[C@@H]([C@H]1C)[C@@]24OO3)c1ccc([N+](=O)[O-])cc1`: the IC50 in the test with Plasmodium falciparum [4] was determined as 0.563 ng/mL; in the test with Plasmodium falciparum [5] it was 0.23 ng/mL.

In the test on Plasmodium falciparum [6], `C[C@@H]1CC[C@H]2[C@H](C[C@@]3(CCCCCCC4C(=O)O[C@@H]5O[C@]6(C)CC[C@H]7[C@H](C)CC[C@@H]4[C@@]57OO6)C(=O)O[C@@H]4O[C@]5(C)CC[C@H]6[C@H](C)CC[C@@H]3[C@@]46OO5)C(=O)O[C@@H]3O[C@]4(C)CC[C@@H]1[C@]32OO4` (some centres not stated) gave an EC50 of 2.4 nM. This lies in the single-digit nanomolar range.

`C=CC1=C(C)[C@@H]2CC[C@@H](C)[C@@H]3CC[C@]4(C)OO[C@@]23[C@H](O1)O4` came in with an IC50 in the test on Plasmodium falciparum [3] of 28 nM.

As for `C[C@@H]1CC[C@H]2[C@H](C[C@@]3(CCCCCC[C@]4(C[C@H]5C(=O)O[C@@H]6O[C@]7(C)CC[C@H]8[C@H](C)CC[C@@H]5[C@@]68OO7)C(=O)O[C@@H]5O[C@]6(C)CC[C@H]7[C@H](C)CC[C@@H]4[C@@]57OO6)C(=O)O[C@@H]4O[C@]5(C)CC[C@H]6[C@H](C)CC[C@@H]3[C@@]46OO5)C(=O)O[C@@H]3O[C@]4(C)CC[C@@H]1[C@]32OO4`, the EC50 in the test with Plasmodium falciparum [6] amounted to 5.8 nM. In other words, the single-digit nanomolar range.

For `CCOC(=O)CC[C@@H](O[C@H]1O[C@@H]2O[C@]3(C)CC[C@H]4[C@H](C)CC[C@@H]([C@H]1C)[C@@]24OO3)c1ccccc1`, the IC50 is 0.496 ng/mL in the test with Plasmodium falciparum [4] and 0.213 ng/mL in the test with Plasmodium falciparum [5].

Consider `CCOC(=O)CC[C@H](O[C@H]1O[C@@H]2O[C@]3(C)CC[C@H]4[C@H](C)CC[C@@H]([C@H]1C)[C@@]24OO3)c1ccccc1`, for which the IC50 in the test on Plasmodium falciparum [4] was found to be 0.459 ng/mL; with Plasmodium falciparum [5] it was 0.144 ng/mL.

Regarding `CC(C)CNCCOC1O[C@@H]2O[C@]3(C)CC[C@H]4[C@H](C)CC[C@@H]([C@H]1C)[C@@]24OO3` (some centres not stated), the values for the EC50 with Plasmodium falciparum [1] and with Plasmodium falciparum [2] were 6.8 nM and 2.4 nM, respectively.

For the molecule `CC1=C(/C=C\c2ccccc2)O[C@@H]2O[C@]3(C)CC[C@H]4[C@H](C)CC[C@@H]1[C@@]24OO3`, the IC50 in the test with Plasmodium falciparum [3] was 8.1 nM.

Consider `CC1CCC2C(CCCCCCC[C@]3(C[C@@H]4C(=O)O[C@@H]5O[C@]6(C)CC[C@H]7[C@H](C)CC[C@@H]4[C@@]57OO6)C(=O)O[C@@H]4O[C@]5(C)CC[C@H]6[C@H](C)CC[C@@H]3[C@@]46OO5)C(O)OC3OC4(C)CCC1C32OO4` (some centres not stated), for which the midpoint of the response in the test on Plasmodium falciparum [6], the EC50, lay at 3.1 nM.

The molecule `C[C@H]1[C@@H](Oc2ccc(C(F)(F)F)cc2)O[C@@H]2O[C@]3(C)CC[C@H]4[C@H](C)CC[C@@H]1[C@@]24OO3` showed an IC50 with Plasmodium falciparum [7] of 5.92 nM.

Take `COc1cc(OC)c(C2O[C@@H]3O[C@]4(C)CC[C@H]5[C@H](C)CC[C@@H]([C@H]2C)[C@@]35OO4)cc1C1O[C@@H]2O[C@]3(C)CC[C@H]4[C@H](C)CC[C@@H]([C@H]1C)[C@@]24OO3` (some centres not stated): in the test on Plasmodium falciparum [8], the IC50 amounted to 1.3 nM.

In the test on Plasmodium falciparum [8], `C[C@@H]1CC[C@H]2[C@@H](C)C(CC(=O)c3cccc(C(=O)CC4O[C@@H]5O[C@]6(C)CC[C@H]7[C@H](C)CC[C@@H]([C@H]4C)[C@@]57OO6)c3)O[C@@H]3O[C@]4(C)CC[C@@H]1[C@]32OO4` (some centres not stated) gave an IC50 of 1.9 nM.

`CCC(=O)OC1O[C@@H]2O[C@]3(C)CC[C@H]4[C@H](C)CC[C@@H]([C@H]1C)[C@@]24OO3` (some centres not stated): the EC50 in the test on Plasmodium falciparum [1] came to 3.1 nM; with Plasmodium falciparum [2] it was 0.3 nM.

`C[C@@H]1CC[C@H]2[C@@H](C)C(CC(=O)c3ccc(C(=O)CC4O[C@@H]5O[C@]6(C)CC[C@H]7[C@H](C)CC[C@@H]([C@H]4C)[C@@]57OO6)cc3)O[C@@H]3O[C@]4(C)CC[C@@H]1[C@]32OO4` (some centres not stated) yielded an IC50 in the test with Plasmodium falciparum [8] of 1.9 nM.
